Laboratory results from patent US10202339B2, “Therapeutic compounds and compositions” (AGIOS PHARMACEUTICALS, INC., priority 2012, dated 2019).
pIC50: −log10 of the molar value.

biological target: IDH2 R140Q (Homo sapiens (Human), UniProt P48735, R140Q); assay: IDH2 R140Q enzymatic cofactor depletion assay (diaphorase/resazurin); format: biochemical; settings: IDH2 R140Q enzyme, one hour preincubation with compound, one hour reaction; read-out: Enz R140Q
Outline: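 Enzyme preincubated with compound 1 h at room temperature, then reaction started with 50 μM NADPH and 6.3 mM α-KG and run 1 h at room temperature. Remaining NADPH measured by diaphorase (36 μg/ml)/resazurin (60 μM) stop mix, fluorescence read at Ex544/Em590 after 1 min.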

IDH2 R140Q, sequence (P48735 40-452 R140Q): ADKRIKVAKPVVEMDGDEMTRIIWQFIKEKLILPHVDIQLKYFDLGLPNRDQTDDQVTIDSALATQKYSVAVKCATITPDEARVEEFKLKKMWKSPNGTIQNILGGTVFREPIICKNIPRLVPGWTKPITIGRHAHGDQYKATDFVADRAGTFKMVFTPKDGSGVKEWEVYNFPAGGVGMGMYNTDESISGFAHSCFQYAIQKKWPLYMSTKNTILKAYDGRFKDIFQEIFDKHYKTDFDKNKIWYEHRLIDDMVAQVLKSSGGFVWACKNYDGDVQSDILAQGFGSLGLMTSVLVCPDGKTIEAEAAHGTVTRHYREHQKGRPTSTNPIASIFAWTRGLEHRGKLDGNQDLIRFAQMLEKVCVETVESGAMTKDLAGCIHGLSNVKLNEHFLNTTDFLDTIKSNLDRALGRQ

pIC50	SMILES
6.00 to 7.00	O=C(Nc1cccc(C(F)(F)F)c1)Nc1cc(S(=O)(=O)NC2CCCC2)ccc1-c1ccsc1 [Compound 126, N-cyclopentyl-4-(thiophen-3-yl)-3-(3-(3-(trifluoromethyl)phenyl)ureido)benzenesulfonamide]
6.00 to 7.00	O=C(Nc1cccc(C(F)(F)F)c1)Nc1cc(S(=O)(=O)NCC2CC2)ccc1-c1ccsc1 [Compound 127, N-(cyclopropylmethyl)-4-(thiophen-3-yl)-3-(3-(3-(trifluoromethyl)phenyl)ureido)benzenesulfonamide]
6.00 to 7.00	O=C(Nc1cccc(C(F)(F)F)c1)Nc1cc(S(=O)(=O)NCC2CCC2)ccc1-c1ccsc1 [Compound 128, N-(cyclobutylmethyl)-4-(thiophen-3-yl)-3-(3-(3-(trifluoromethyl)phenyl)ureido)benzenesulfonamide]
6.00 to 7.00	O=C(Nc1cccc(C(F)(F)F)c1)Nc1cc(S(=O)(=O)NCC2CCCC2)ccc1-c1ccsc1 [Compound 129, N-(cyclopentylmethyl)-4-(thiophen-3-yl)-3-(3-(3-(trifluoromethyl)phenyl)ureido)benzenesulfonamide]
6.00 to 7.00	O=C(Nc1cccc(C(F)(F)F)c1)Nc1cc(S(=O)(=O)NCC(F)(F)F)ccc1-c1ccsc1 [Compound 130, 4-(thiophen-3-yl)-N-(2,2,2-trifluoroethyl)-3-(3-(3-(trifluoromethyl)phenyl)ureido)benzenesulfonamide]
6.00 to 7.00	O=C(Nc1cccc(C(F)(F)F)c1)Nc1cc(S(=O)(=O)N2CCOCC2)ccc1-c1ccsc1 [Compound 131, 1-(5-(morpholinosulfonyl)-2-(thiophen-3-yl)phenyl)-3-(3-(trifluoromethyl)phenyl)urea]
6.00 to 7.00	O=C(Nc1cccc(C(F)(F)F)c1)Nc1cc(S(=O)(=O)NC2CCOCC2)ccc1-c1ccsc1 [Compound 132, N-(tetrahydro-2H-pyran-4-yl)-4-(thiophen-3-yl)-3-(3-(3-(trifluoromethyl)phenyl)ureido)benzene sulfonamide]
6.00 to 7.00	O=C(Nc1cccc(C(F)(F)F)c1)Nc1cc(S(=O)(=O)NCC2CCOCC2)ccc1-c1ccsc1 [Compound 133, N-((tetrahydro-2H-pyran-4-yl)methyl)-4-(thiophen-3-yl)-3-(3-(3-(trifluoromethyl)phenyl)ureido)benzene sulfonamide]
6.00 to 7.00	O=C(Nc1cccc(C(F)(F)F)c1)Nc1cc(S(=O)(=O)NC2CCSCC2)ccc1-c1ccsc1 [Compound 134, N-(tetrahydro-2H-thiopyran-4-yl)-4-(thiophen-3-yl)-3-(3-(3-(trifluoromethyl)phenyl)ureido)benzene sulfonamide]
6.00 to 7.00	O=C(Nc1cccc(C(F)(F)F)c1)Nc1cc(S(=O)(=O)N2CCS(=O)(=O)CC2)ccc1-c1ccsc1 [Compound 135, 1-(5-((1,1-dioxidothiomorpholino)sulfonyl)-2-(thiophen-3-yl)phenyl)-3-(3-(trifluoromethyl)phenyl)urea]
6.00 to 7.00	O=C(Nc1cccc(C(F)(F)F)c1)Nc1cc(S(=O)(=O)NCc2ccccc2)ccc1-c1ccsc1 [Compound 136, N-benzyl-4-(thiophen-3-yl)-3-(3-(3-(trifluoromethyl)phenyl)ureido)benzenesulfonamide]
5.00 to 6.00	CN(C)S(=O)(=O)c1ccc(-c2ccsc2)c(NC(=O)Nc2cccc(C(F)(F)F)c2)c1 [Compound 137]
6.00 to 7.00	CONS(=O)(=O)c1ccc(-c2ccsc2)c(NC(=O)Nc2cccc(C(F)(F)F)c2)c1 [Compound 138, N-methoxy-4-(thiophen-3-yl)-3-(3-(3-(trifluoromethyl)phenyl)ureido)benzenesulfonamide]
6.00 to 7.00	CCONS(=O)(=O)c1ccc(-c2ccsc2)c(NC(=O)Nc2cccc(C(F)(F)F)c2)c1 [Compound 139, N-ethoxy-4-(thiophen-3-yl)-3-(3-(3-(trifluoromethyl)phenyl)ureido)benzenesulfonamide]
5.00 to 6.00	O=C(Nc1cccc(C(F)(F)F)c1)Nc1cc(S(=O)(=O)N2CCC2)ccc1-c1ccsc1 [Compound 140]
5.00 to 6.00	O=C(Nc1cccc(C(F)(F)F)c1)Nc1cc(S(=O)(=O)N2CCCC2)ccc1-c1ccsc1 [Compound 141]
< 5.00	O=C(Nc1cccc(C(F)(F)F)c1)Nc1cc(S(=O)(=O)Nc2ccccc2O)ccc1-c1ccsc1 [Compound 142]
5.00 to 6.00	CN(c1ccccc1)S(=O)(=O)c1ccc(-c2ccsc2)c(NC(=O)Nc2cccc(C(F)(F)F)c2)c1 [Compound 143]
5.00 to 6.00	C[C@@H](NS(=O)(=O)c1ccc(-c2ccsc2)c(NC(=O)Nc2cccc(C(F)(F)F)c2)c1)c1ccccc1 [Compound 144]
5.00 to 6.00	C[C@H](NS(=O)(=O)c1ccc(-c2ccsc2)c(NC(=O)Nc2cccc(C(F)(F)F)c2)c1)c1ccccc1 [Compound 145]

pIC50	SMILES
5.00 to 6.00	O=C(Nc1cccc(C(F)(F)F)c1)Nc1cc(S(=O)(=O)Nc2ccc(O)cc2)ccc1-c1ccsc1 [Compound 146, N-(4-hydroxyphenyl)-4-(thiophen-3-yl)-3-(3-(3-(trifluoromethyl)phenyl)ureido)benzenesulfonamide]
5.00 to 6.00	O=C(Nc1cccc(C(F)(F)F)c1)Nc1cc(S(=O)(=O)Nc2cccc(C(F)(F)F)c2)ccc1-c1ccsc1 [Compound 147]
5.00 to 6.00	O=C(Nc1cccc(C(F)(F)F)c1)Nc1cc(S(=O)(=O)Nc2cc[nH]n2)ccc1-c1ccsc1 [Compound 148]
5.00 to 6.00	O=C(Nc1cccc(C(F)(F)F)c1)Nc1cc(S(=O)(=O)Nc2ccccn2)ccc1-c1ccsc1 [Compound 149]
5.00 to 6.00	O=C(Nc1cccc(C(F)(F)F)c1)Nc1cc(S(=O)(=O)Nc2cccnc2)ccc1-c1ccsc1 [Compound 150]
6.00 to 7.00	CC1(NS(=O)(=O)c2ccc(-c3ccsc3)c(NC(=O)Nc3cccc(C(F)(F)F)c3)c2)CC1 [Compound 151, N-(1-methylcyclopropyl)-4-(thiophen-3-yl)-3-(3-(3-(trifluoromethyl)phenyl)ureido)benzenesulfonamide]
6.00 to 7.00	CC1CC1NS(=O)(=O)c1ccc(-c2ccsc2)c(NC(=O)Nc2cccc(C(F)(F)F)c2)c1 (stereo not shown) [Compound 152, N-(2-methylcyclopropyl)-4-(thiophen-3-yl)-3-(3-(3-(trifluoromethyl)phenyl)ureido)benzenesulfonamide]
5.00 to 6.00	O=C(Nc1ccc(F)cc1)Nc1cc(S(=O)(=O)NCC2CC2)ccc1C1=CCOCC1 [Compound 153]
6.00 to 7.00	O=C(Nc1cccc(C(F)(F)F)c1)Nc1cc(S(=O)(=O)NCC2CC2)ccc1C1=CCOCC1 [Compound 154, N-(cyclopropylmethyl)-4-(3,6-dihydro-2H-pyran-4-yl)-3-(3-(3-(trifluoromethyl)phenyl)ureido)benzene sulfonamide]
6.00 to 7.00	O=C(Nc1ccc(F)c(Cl)c1)Nc1cc(S(=O)(=O)NCC2CC2)ccc1C1=CCOCC1 [Compound 155, 3-(3-(3-chloro-4-fluorophenyl)ureido)-N-(cyclopropylmethyl)-4-(3,6-dihydro-2H-pyran-4-yl)benzene sulfonamide]
6.00 to 7.00	O=C(Nc1ccc(F)c(C(F)(F)F)c1)Nc1cc(S(=O)(=O)NCC2CC2)ccc1C1=CCOCC1 [Compound 156, N-(cyclopropylmethyl)-4-(3,6-dihydro-2H-pyran-4-yl)-3-(3-(4-fluoro-3-(trifluoromethyl)phenyl)ureido)benzenesulfonamide]
5.00 to 6.00	O=C(Nc1cccc(C(F)(F)F)c1)Nc1cc(S(=O)(=O)NCC(F)(F)F)ccc1C1=CCOCC1 [Compound 157, 4-(3,6-dihydro-2H-pyran-4-yl)-N-(2,2,2-trifluoroethyl)-3-(3-(3-(trifluoromethyl)phenyl)ureido)benzene sulfonamide]
6.00 to 7.00	O=C(Nc1ccc(F)c(Cl)c1)Nc1cc(S(=O)(=O)NCC(F)(F)F)ccc1C1=CCOCC1 [Compound 158, 3-(3-(3-chloro-4-fluorophenyl)ureido)-4-(3,6-dihydro-2H-pyran-4-yl)-N-(2,2,2-trifluoroethyl)benzene sulfonamide]
6.00 to 7.00	O=C(Nc1ccc(F)c(C(F)(F)F)c1)Nc1cc(S(=O)(=O)NCC(F)(F)F)ccc1C1=CCOCC1 [Compound 159, 4-(3,6-dihydro-2H-pyran-4-yl)-3-(3-(4-fluoro-3-(trifluoromethyl)phenyl)ureido)-N-(2,2,2-trifluoroethyl)benzenesulfonamide]
6.00 to 7.00	O=C(Nc1cccc(C(F)(F)F)c1)Nc1cc(S(=O)(=O)Nc2ccccc2)ccc1C1=CCOCC1 [Compound 161, 4-(3,6-dihydro-2H-pyran-4-yl)-N-phenyl-3-(3-(3-(trifluoromethyl)phenyl)ureido)benzene sulfonamide]
6.00 to 7.00	O=C(Nc1cccc(C(F)(F)F)c1)Nc1cc(S(=O)(=O)NCC2CC2)ccc1C1CCCCO1 (stereo not shown) [Compound 162, N-(cyclopropylmethyl)-4-(tetrahydro-2H-pyran-2-yl)-3-(3-(3-(trifluoromethyl)phenyl)ureido)benzene sulfonamide]
6.00 to 7.00	O=C(Nc1cccc(Cl)c1)Nc1cc(S(=O)(=O)NCC2CC2)ccc1C1CCCCO1 (stereo not shown) [Compound 163, 3-(3-(3-chlorophenyl)ureido)-N-(cyclopropylmethyl)-4-(tetrahydro-2H-pyran-2-yl)benzenesulfonamide]
6.00 to 7.00	O=C(Nc1ccc(F)c(C(F)(F)F)c1)Nc1cc(S(=O)(=O)NCC2CC2)ccc1C1CCCCO1 (stereo not shown) [Compound 164, N-(cyclopropylmethyl)-3-(3-(4-fluoro-3-(trifluoromethyl)phenyl)ureido)-4-(tetrahydro-2H-pyran-2-yl)benzenesulfonamide]
6.00 to 7.00	O=C(Nc1cccc(C(F)(F)F)c1)Nc1cc(S(=O)(=O)NCC(F)(F)F)ccc1C1CCCCO1 (stereo not shown) [Compound 165, 4-(tetrahydro-2H-pyran-2-yl)-N-(2,2,2-trifluoroethyl)-3-(3-(3-(trifluoromethyl)phenyl)ureido)benzene sulfonamide]
6.00 to 7.00	O=C(Nc1ccc(F)c(Cl)c1)Nc1cc(S(=O)(=O)NCC(F)(F)F)ccc1C1CCCCO1 (stereo not shown) [Compound 166, 3-(3-(3-chloro-4-fluorophenyl)ureido)-4-(tetrahydro-2H-pyran-2-yl)-N-(2,2,2-trifluoroethyl)benzene sulfonamide]
